Experiments:
Assay in all cases: relative viability (nuclei count vs DMSO), 5 days (fraction); higher = more cells survive
[1] = compound: C1CC1C(=O)NC2=NNC3=C2C=CC(=C3)C4=CC(=CC=C4)C(=O)NC5CC5 [XMD13-2] + Nc1ncn([C@H]2C[C@H](O)[C@@H](CO)O2)c(=O)n1 [Decitabine] (partner 2 µM)
Procedure, shortened: (§1)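 Lung cancer cell lines were pin-tool dosed in 1536-well plates on the day after seeding, with either a lone drug or a fixed anchor-drug dose plus five library-drug doses (not always all listed) in √10 steps. Nuclei were counted on 4× images after 5 days. Relative viability is the ratio of treated-well to vehicle-well nuclei counts, with each value a median of duplicate plates.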

[2] = compound: Cc1ccc(C(=O)Nc2cccc(C(F)(F)F)c2)cc1Nc1cncc(C(N)=O)c1 [ALW-II-49-7] + CC1(C)CCC(c2ccc(Cl)cc2)=C(CN2CCN(c3ccc(C(=O)NS(=O)(=O)c4ccc(N[C@H](CCN5CCOCC5)CSc5ccccc5)c(S(=O)(=O)C(F)(F)F)c4)cc3)CC2)C1 [Navitoclax] (partner 0.5 µM)
Procedure, shortened: as §1

[3] = compound: Cc1ccc(C(=O)Nc2cccc(C(F)(F)F)c2)cc1Nc1cncc(C(N)=O)c1 [ALW-II-49-7] + COc1cc2c(Oc3ccc(NC(=O)C4(C(=O)Nc5ccc(F)cc5)CC4)cc3F)ccnc2cc1OCCCN1CCOCC1 [Foretinib] (partner 0.25 µM)
Procedure, shortened: as §1

[4] = compound: Cc1nc(Nc2ncc(C(=O)Nc3c(C)cccc3Cl)s2)cc(N2CCN(CCO)CC2)n1 [Dasatinib] + COc1cc2c(Oc3ccc(NC(=O)C4(C(=O)Nc5ccc(F)cc5)CC4)cc3F)ccnc2cc1OCCCN1CCOCC1 [Foretinib] (partner 0.25 µM)
Procedure, shortened: as §1

Cell Line	relative viability ([1]; first compound 0.05 µM)	relative viability ([1]; first compound 0.1581 µM)	relative viability ([1]; first compound 0.5 µM)	relative viability ([1]; first compound 1.581 µM)	relative viability ([1]; first compound 5 µM)	relative viability ([2]; first compound 0.08 µM)	relative viability ([2]; first compound 0.253 µM)	relative viability ([2]; first compound 0.8 µM)	relative viability ([2]; first compound 2.53 µM)	relative viability ([2]; first compound 8 µM)	relative viability ([3]; first compound 0.253 µM)	relative viability ([3]; first compound 0.8 µM)	relative viability ([3]; first compound 2.53 µM)	relative viability ([3]; first compound 8 µM)	relative viability ([4]; first compound 0.005 µM)	relative viability ([4]; first compound 0.01581 µM)	relative viability ([4]; first compound 0.05 µM)	relative viability ([4]; first compound 0.1581 µM)	relative viability ([4]; first compound 0.5 µM)	relative viability ([3]; first compound 0.08 µM)
201T	0.861	0.839	0.905	0.86	0.902	1.18	1.22	1.21	1.27	1.23	1.24	1.01	0.447	1.13	0.945	0.883	0.816	0.531	0.346	–
LC-2-ad	0.797	0.728	0.828	0.79	0.712	0.445	0.463	0.37	0.341	0.42	0.881	0.929	0.559	0.905	1.04	0.802	0.473	0.369	0.293	0.863
NCI-H596	0.934	1.02	1	1.03	1.29	0.98	0.784	0.85	0.972	0.927	0.902	0.886	0.841	0.937	0.688	0.66	0.521	0.376	0.291	0.949
NCI-H1437	0.604	0.569	0.541	0.55	0.578	1.11	1.17	–	1.07	1.06	1.26	1.2	1.26	1.16	1.25	1.23	1.32	1.07	0.848	1.35
NCI-H727	1.02	0.783	0.914	0.841	1	0.611	0.447	0.482	0.53	0.552	0.832	1.1	0.912	1.08	0.616	0.512	0.431	0.278	0.185	1.17
NCI-H2228	–	–	–	–	–	1.4	0.809	0.628	0.838	0.84	0.651	0.736	0.848	0.795	0.853	0.614	0.766	0.51	0.407	1.07
NCI-H358	0.248	0.212	0.22	0.216	0.18	–	–	–	–	–	0.658	0.575	0.809	0.689	0.649	0.532	0.433	0.198	0.162	0.691
NCI-H1792	0.625	0.507	0.581	0.551	0.48	0.351	0.438	0.725	0.654	0.327	–	–	–	–	–	–	–	–	–	–
NCI-H650	0.311	0.315	0.329	0.296	0.306	–	–	–	–	–	1.06	1.01	0.92	0.638	1.02	0.875	1.01	0.759	0.475	1.16
Calu-6	–	–	–	–	–	0.814	0.84	0.731	0.591	0.636	0.832	0.912	0.832	0.805	0.738	0.702	0.633	0.513	0.469	0.914
CAL-12T	–	–	–	–	–	1.15	1.08	1.2	1.42	1.17	1.14	1.19	1.07	0.843	1.18	1.04	1.23	0.66	0.532	1.11
LCLC-103H	0.712	0.748	0.765	0.719	0.756	–	–	–	–	–	0.832	0.926	0.735	0.77	0.725	0.626	0.55	0.378	0.157	0.707
NCI-H1623	–	–	–	–	–	–	–	–	–	–	0.809	0.87	0.649	0.859	0.855	0.675	0.8	0.672	0.457	0.889
NCI-H1299	–	–	–	–	–	1.03	1.08	1.05	1.07	0.968	1.16	1.09	0.996	0.965	1.11	0.708	1.09	0.386	0.255	1.09
NCI-H1703	–	–	–	–	–	1.02	1.08	0.964	0.406	0.291	0.407	0.306	0.308	0.352	0.276	0.292	0.23	0.202	0.262	0.271
NCI-H522	0.615	0.654	0.633	0.546	0.721	–	–	–	–	–	–	–	–	–	–	–	–	–	–	–
ABC-1	1.13	1.33	1.24	–	1.11	–	–	–	–	–	1.11	1.14	0.863	1.42	1.08	0.906	0.948	0.692	0.487	0.959
IA-LM	–	–	–	–	–	0.84	0.551	0.689	0.213	0.0967	0.999	1.28	1.02	0.416	1.16	1.09	1.1	0.634	0.462	1.06
SW 900	0.51	0.454	0.447	0.439	0.447	–	–	–	–	–	0.866	0.96	0.913	0.831	0.685	0.608	0.787	0.476	0.225	0.943
NCI-H1563	–	–	–	–	–	–	–	–	–	–	0.97	0.948	0.95	0.899	0.82	0.751	0.746	0.578	0.517	0.942
NCI-H2342	0.724	0.841	0.778	0.716	0.807	–	–	–	–	–	0.986	1.07	1.03	0.981	1.02	0.662	0.977	0.51	0.34	1.19

Reference: the supplement of paper PMC10307832
